# Where a SMILES comes first, the peptide text is derived from it. [ ]: non-standard residue; d: D form. The star is where a group is joined. dPhe(4-NHCONH2) = NC(=O)Nc1ccc(C[C@@H](N)C(=O)O)cc1; Dihydroorotyl(S) = O=C1C[C@@H](C(=O)*)NC(=O)N1; dPhe(4-Cl) = N[C@H](Cc1ccc(Cl)cc1)C(=O)O; Phe(4-NH2) = Nc1ccc(C[C@H](N)C(=O)O)cc1; d2Nal = N[C@H](Cc1ccc2ccccc2c1)C(=O)O; Lys(iPr) = CC(C)NCCCC[C@H](N)C(=O)O; d3Pal = N[C@H](Cc1cccnc1)C(=O)O
# What was measured:
# clinical = conditions: male, human, in vivo, sc
# Procedure: The present study included a starting degarelix dose of 240 mg (with a concentration of 40 mg/mL of solvent), followed by maintenance doses of degarelix: i.e., 360 mg (with a concentration of 60 mg/mL of solvent) or 480 mg (with a concentration of 60 mg/mL of solvent), the latter administered at Months 1, 4, 7, and 10.
# The study was open labeled and patients received a starting dose of 240 mg (with a concentration of 40 mg/mL of solvent) at Month 0 followed by one of two degarelix maintenance dose treatment regimens: 360 mg (with a concentration of 60 mg/mL of solvent) at Months 1, 4, 7, and 10; or 480 mg (with a concentration of 60 mg/mL of solvent) at Months 1, 4, 7, and 10.
# The starting dose was administered subcutaneously as two injections of 120 mg (with a concentration of 40 mg/ml of solvent, given as 2×3 mL injections). After 28 days a maintenance dose of 360 mg (with a concentration of 60 mg/mL, given as 2×3 mL injections) or 480 mg (with a concentration of 60 mg/mL, given as 2×4 mL injections) was administered, also in two injections (each of 240 mg). Thereafter, with three monthly intervals, maintenance doses were given, again in the form of two injections. […] At each visit, serum testosterone, prostate specific androgen (PSA), and plasma concentration of degarelix were measured by techniques well known in the art.
# [1] = human, in vivo
# Excerpt: At the data cut-off date (i.e., seven months after commence of the clinical trial), 133 patients with prostate cancer were exposed to degarelix in the Phase 2, three-month dosing regimen clinical program (CS18).
# PSA = assay: Clinical trial CS18: PSA change from baseline; format: in vivo, human
# Procedure: PSA is a commonly used marker in the diagnosis of prostate cancer and has more recently also been used to monitor response to treatment as well as disease recurrence and progression (Fleming et al. (2006) Nat. Clin. Pract. Oncol. 3: 658-68; Lilja, et al. (2008) Nat. Rev. Cancer 8: 268-78). In general, higher levels of PSA are associated with more severe forms of prostate cancer, with metastatic stage prostate cancer being associated with the highest level of PSA (e.g., >50 ng/mL). Accordingly, rising PSA levels in patients undergoing prostate cancer treatment are associated with incomplete or failed efficacy of the treatment. Here, there were further reductions in PSA after Month 1 and the median reductions were sustained throughout the study period (median reductions of 96-97%).
compound,measurement,setting,value
"CC(=O)N[C@H](Cc1ccc2ccccc2c1)C(=O)N[C@H](Cc1ccc(Cl)cc1)C(=O)N[C@H](Cc1cccnc1)C(=O)N[C@@H](CO)C(=O)N[C@@H](Cc1ccc(NC(=O)[C@@H]2CC(=O)NC(=O)N2)cc1)C(=O)N[C@H](Cc1ccc(NC(N)=O)cc1)C(=O)N[C@@H](CC(C)C)C(=O)N[C@@H](CCCCNC(C)C)C(=O)N1CCC[C@H]1C(=O)N[C@H](C)C(N)=O [Degarelix, D-Alaninamide, N-acetyl-3-(2-naphthalenyl)-D-alanyl-4-chloro-D-phenylalanyl-3-(3-pyridinyl)-D-alanyl-L-seryl-4-[[[(4S)-hexahydro-2,6-dioxo-4-pyrimidinyl]carbonyl]amino]-L-phenylalanyl-4-[(aminocarbonyl)amino]-D-phenylalanyl-L leucyl-N6-(1-methylethyl)-L-lysyl-L-prolyl] (Ac-[d2Nal][dPhe(4-Cl)][d3Pal]S[Phe(4-NH2)](Dihydroorotyl(S))[dPhe(4-NHCONH2)]L[Lys(iPr)]P[dA]-NH2)",level at 1 year,clinical; 360 mg,~10 ng/mL
same,level at 1 year,clinical; 480 mg,~13 ng/mL
same,hepatotoxicity: impairment of liver function,[1],do not show any clinically significant impairment of liver function
same,immediate anaphylactic reactions,[1],no immediate anaphylactic reactions reported
same,incidence of any injection site reaction,[1],26%
same,injection site reactions of mild intensity,[1],11%
same,injection site reactions of moderate intensity,[1],11%
same,patients reporting severe injection site reactions,[1],5%
same,"PSA, Median % Change from Baseline","PSA; 360/60 mg, Day 28",−83.8%
same,"PSA, Median % Change from Baseline","PSA; 360/60 mg, Day 56",−93.8%
same,"PSA, Median % Change from Baseline","PSA; 360/60 mg, Day 84",−95.0%
same,"PSA, Median % Change from Baseline","PSA; 360/60 mg, Day 112",−95.5%
same,"PSA, Median % Change from Baseline","PSA; 360/60 mg, Day 140",−96.2%
same,"PSA, Median % Change from Baseline","PSA; 360/60 mg, Day 168",−96.8%
same,"PSA, Median % Change from Baseline","PSA; 360/60 mg, Day 196",−95.9%
same,"PSA, Median % Change from Baseline","PSA; 360/60 mg, Day 224",−96.4%
same,"PSA, Median % Change from Baseline","PSA; 360/60 mg, Day 252",−97.0%
same,"PSA, Median % Change from Baseline","PSA; 360/60 mg, Day 280",−97.0%
same,"PSA, Median % Change from Baseline","PSA; 360/60 mg, Day 308",−97.3%
same,"PSA, Median % Change from Baseline","PSA; 360/60 mg, Day 336",−97.5%
same,"PSA, Median % Change from Baseline","PSA; 360/60 mg, Day 364",−96.9%
same,"PSA, Median % Change from Baseline","PSA; 360/60 mg, Last visit",−96.9%
same,"PSA, Median % Change from Baseline","PSA; 480/60 mg, Day 28",−78.9%
same,"PSA, Median % Change from Baseline","PSA; 480/60 mg, Day 56",−90.9%
same,"PSA, Median % Change from Baseline","PSA; 480/60 mg, Day 84",−93.4%
same,"PSA, Median % Change from Baseline","PSA; 480/60 mg, Day 112",−95.3%
same,"PSA, Median % Change from Baseline","PSA; 480/60 mg, Day 140",−95.5%
same,"PSA, Median % Change from Baseline","PSA; 480/60 mg, Day 168",−96.5%
same,"PSA, Median % Change from Baseline","PSA; 480/60 mg, Day 196",−96.2%
same,"PSA, Median % Change from Baseline","PSA; 480/60 mg, Day 224",−96.6%
same,"PSA, Median % Change from Baseline","PSA; 480/60 mg, Day 252",−96.9%
same,"PSA, Median % Change from Baseline","PSA; 480/60 mg, Day 280",−96.5%
same,"PSA, Median % Change from Baseline","PSA; 480/60 mg, Day 308",−97.0%
same,"PSA, Median % Change from Baseline","PSA; 480/60 mg, Day 336",−97.4%
same,"PSA, Median % Change from Baseline","PSA; 480/60 mg, Day 364",−97.1%
same,"PSA, Median % Change from Baseline","PSA; 480/60 mg, Last visit",−96.5%
same,median reductions in PSA sustained throughout the study period,"PSA; CS18, after Month 1",96-97%
same,"PSA, Median % Change from Baseline","PSA; Total (both arms), Day 28",−81.2%
same,"PSA, Median % Change from Baseline","PSA; Total (both arms), Day 56",−92.9%
same,"PSA, Median % Change from Baseline","PSA; Total (both arms), Day 84",−94.5%
same,"PSA, Median % Change from Baseline","PSA; Total (both arms), Day 112",−95.4%
same,"PSA, Median % Change from Baseline","PSA; Total (both arms), Day 140",−95.9%
same,"PSA, Median % Change from Baseline","PSA; Total (both arms), Day 168",−96.6%
same,"PSA, Median % Change from Baseline","PSA; Total (both arms), Day 196",−96.2%
same,"PSA, Median % Change from Baseline","PSA; Total (both arms), Day 224",−96.5%
same,"PSA, Median % Change from Baseline","PSA; Total (both arms), Day 252",−96.9%
same,"PSA, Median % Change from Baseline","PSA; Total (both arms), Day 280",−97.0%
same,"PSA, Median % Change from Baseline","PSA; Total (both arms), Day 308",−97.2%
same,"PSA, Median % Change from Baseline","PSA; Total (both arms), Day 336",−97.4%
same,"PSA, Median % Change from Baseline","PSA; Total (both arms), Day 364",−96.9%
